From publication PMC5870190, “A three-in-one-bullet for oesophageal cancer: replication fork collapse, spindle attachment failure and enhanced radiosensitivity generated by a ruthenium(II) metallo-intercalator” (Chemical Science, 2017) come the findings set out here.

The subject of assay [1] is OE21 human oesophageal squamous cell carcinoma. The experiment in a line: MTT assay, OE21 cells. It counts as cell-based. The note with it: for IC50: MTT. The procedure: (§1) MTT assay. OE21, FLO-1 or hSAEC1-KT cells were seeded in 96 well plates at 20,000 cells/well (for 24 h treatment) or 10,000 cells/well (for 72 h treatment) and allowed to adhere for 24 h before treatment. OE33 cells were seeded in 48 well plates at 40,000 cells/well (24 h treatment) or 20,000 cells/well (72 h treatment). Cancer cell lines were treated with chemicals dissolved in RPMI media for consistency. After incubation, 0.5 mg/ml MTT (thiazolyl blue tetrazolium bromide) dissolved in serum-free medium was added for 60 minutes and the formazan product eluted using acidified isopropanol.
(§2) The absorbance at 540 nm was quantified by plate reader (reference wavelength 650 nm). The metabolic activity of the cell population was determined as a percentage of a negative (solvent) control. […]
(§3) For the determination of mutation induction, from the untreated and each treated condition, 2x10^5 cells were plated in 10 x 100 mm dishes in selective media (regular media
On the technique in general: Formazan colour is commonly taken as a measure of viable cells.

The subject of assay [2] is FLO-1 human oesophageal adenocarcinoma. The experiment in a line: MTT assay, FLO-1 cells. It counts as cell-based. Here is the method: as §1, §2, §3
Assay [3] relates to OE33 human oesophageal adenocarcinoma. Kind of assay: MTT assay, OE33 cells. It is filed as cell-based. The procedure: as §1, §2, §3
The subject of assay [4] is OE21 cells. Kind of assay: Cell-cycle analysis by flow cytometry. It counts as cell-based, human. The note with it: OE21, 7 μM, 24 h. The procedure:
phototoxic contribution to bio-activity. Doxorubicin (Sigma) was prepared in doubly-distilled water (10 mg/mL, 17.4 mM).
[Ru(phen)2(dppz)]2+ (2 mM) was prepared in doubly-distilled water.
Sub-cellular fractionation. OE21 or OE33 cells were treated in 12 well plates, washed with cold PBS (2x2 mls) and nuclear and cytosol fractions obtained using the Nuclei EZ Lysis kit (Sigma). Briefly, cells were washed with acidified PBS (pH 2.5) to remove the membrane-bound fraction and 0.4 ml EZ lysis buffer was added. Cells were detached by scraping, collected into eppendorfs, vortexed briefly and left for 5 minutes on ice. Samples were centrifuged (500g, 5 mins) and the supernatant (cytosol fraction) aspirated. The pellet (nuclear fraction) was re-suspended in 200 µl RIPA buffer. […] Ruthenium content was determined by ICP-MS analysis as described in a recent […]
DNA fibre assay. […] CldU- and IdU-labelled tracts were visualised using a Leica DMRB microscope with a DFC360FX camera and tract length measured by ImageJ software. […]
Western blotting. […] Protein content was determined by BCA assay. […]
AnnexinV staining. […] This was incubated for 15 mins at room temperature, 400 µl binding buffer added and analysed by flow cytometry (FL1 and FL3 channels for FITC and PI respectively). […]
(In general: Flow cytometry measures light scatter and fluorescence of single cells or particles in a stream.)

Assay [5] deals with OE21 cells. The experiment in a line: DNA fibre assay (replication fork progression). It counts as cell-based, human. The procedure:
DNA fibre assay. The DNA fibre assay was performed as described previously.5 Briefly, OE21 cells were labelled with 30 µM CldU for 30 mins and then 250 µM IdU for an additional 30 mins. Either Ru1 (21 µM) or dppz (7 µM) was added during the second (IdU) nucleotide step (30 mins). DNA replication was terminated using ice-cold PBS and cells lysed (200 mM Tris-HCl pH 7.4, 50 mM EDTA and 0.5% SDS). DNA fibres were spread onto glass slides, fixed with methanol:acetic acid (3:1) and denatured with 2.5 M HCl. After blocking with 2% BSA, fibres were stained with anti-rat and anti-mouse 5-bromo-2′- deoxyuridine (BrdU) that specifically recognise either CldU (Abcam, dilution 1:500) or IdU (BD Sciences, 1:100). Anti-rat Cy3 (Jackson Immuno Research, 1:300) and anti-mouse Alexa-488 (Molecular Probes, 1:300) were used as the respective secondary antibodies. CldU- and IdU-labelled tracts were visualised using a Leica DMRB microscope with a DFC360FX camera and tract length measured by ImageJ software. Statistical analysis was performed by GraphPad Prism software using an unpaired t-test.
Western blotting. Treated samples were washed with cold PBS and lysed in RIPA (radioimmunoprecipitation assay) buffer containing protease inhibitors (10 μg/mL leupeptin, 2 μg/mL pepstatin, 50 μg/mL antipain, 2 μg/mL aprotinin, 20 μg/mL chyprostatin, 2 μg/mL benzamidine, 1 mM phenylmethanesulfonyl fluoride) and phosphatase inhibitors (50 mM NaF, 1 mM […]
Bis-Tris gels and LDS-PAGE. Gels were transferred onto nitrocellulose membrane and probed with primary antibodies in 5% BSA (bovine serum albumin) solutions at the following dilutions: 1/1000 dilution for majority of Cell Signaling antibodies and γH2AX. 1/500 for anti-p-ATR and anti-cleaved caspase 3. 1/200 anti-Chk1. 1/5000-1/10,000 anti- α-tubulin or β-actin.
Reactions were visualised with a suitable secondary antibody conjugated with horseradish peroxidase (1/5000 dilution, Thermo). […]

Assay [6] concerns hSAEC1-KT normal human small airway epithelial cells. The experiment in a line: MTT assay, hSAEC1-KT cells. It is filed as cell-based. Here is the method: as §1, §2, §3
For a further assay, the system named is OE33 cells. Kind of assay: Clonogenic survival assay with IR, OE33. The note with it: Ru1 2 μM or Cis 500 nM for 24 h before IR. It is filed as cell-based, human. The procedure: (§4) Clonogenic survival assay. OE21, OE33 or FLO1 cells were treated with 2 µM Ru1 for 24 h before irradiation with 0-8 Gy using a 137Cs γ-irradiator (IBL637, CIS Bio Int.; dose rate = 0.809 Gy min−1). 1 h after irradiation, cells were detached using Trypsin and re-seeded in 6 well plates at a density of 300 – 20,000 cells/well in triplicate in an incrementally greater number of cells with increasing IR dose to ensure adequate colony formation. Cells were incubated for 7–14 days after re-seeding to allow colony formation before being fixed with 10% methanol, 10% acetic acid and stained with 0.4% methylene blue. OE33 cells required an additional formaldehyde fixation (4% in PBS, 5 mins) step before the addition of methylene blue solution or colony detachment occurred. Colonies containing 50 cells or greater were counted using a Gelcount instrument and accompanying software (Oxford Optronix). Plating efficiencies were determined for each treatment condition and normalised to an untreated control to provide the surviving fraction (S. F.). S.F. versus radiation dose curves were plotted in GraphPad Prism and fit using a second order polynomial function (R2 values > 0.99). Dose modifying factors (DMF) at a SF=0.1 were calculated using the equation: Dose modifying factor (DMF) = IR dose to give S.F. 0.1/IR dose plus compound to give S.F.0.1. […]

A further assay relates to FLO-1 cells. Kind of assay: Clonogenic survival assay with IR, FLO-1. It counts as cell-based, human. Particulars: Ru1 2 μM or Cis 300 nM for 24 h before IR. The procedure:
as §4

For assay [7], the system named is OE21 cells. Kind of assay: Clonogenic survival assay with IR, OE21. It counts as cell-based, human. Particulars: Ru1 2 μM or Cis 500 nM for 24 h before IR. Here is the method: as §4
Assay [8] deals with OE21, OE33 or FLO-1 cells. The experiment in a line: Clonogenic survival assay with IR, three oesophageal cancer cell lines. It is filed as cell-based, human. Particulars: Ru1 2 μM or sub-cytotoxic cisplatin (500 nM OE21 and OE33, 300 nM FLO-1), 24 h before IR; range over three cell lines. Here is the method: as §4

Broadly, the IC50 is the midpoint of a concentration-inhibition curve. Lower therefore signals greater potency. In the case of `COc1cccc2c1C(=O)c1c(O)c3c(c(O)c1C2=O)C[C@@](O)(C(=O)CO)C[C@@H]3O[C@H]1C[C@H](N)[C@H](O)[C@H](C)O1` [DOX, doxorubicin], in assay [1] (72 h exposure), the “reduction in potency towards OE21 cells compared to OE33 or FLO-1 cells” value is “three-fold”. The IC50 in [1] (Homo sapiens, Table S2, OE21, 24 h constant incubation) stood at 4.2 ± 0.3 µM; in [1] (Homo sapiens, Table S2, OE21, 72 h constant incubation), 0.21 ± 0.07 µM; in assay [2] (Homo sapiens, FLO-1, Table S2, FLO1, 24 h constant incubation), 6.1 ± 1.9 µM; in assay [2] (Homo sapiens, FLO-1, Table S2, FLO1, 72 h constant incubation), 0.05 ± 0.02 µM; in [3] (Homo sapiens, Table S2, OE33, 24 h constant incubation) it was 8.1 ± 2.7 µM; in [3] (Homo sapiens, Table S2, OE33, 72 h constant incubation), 0.07 ± 0.03 µM.
With `c1ccc2nc3c4cccnc4c4ncccc4c3nc2c1` [dppz, dipyridophenazine], the IC50 in assay [1] (Homo sapiens, OE21, 24 h constant exposure) was 6.5 ± 2.1 µM; in assay [1] (Homo sapiens, OE21, 72 h constant exposure), 3.3 ± 0.4 µM; in assay [2] (Homo sapiens, FLO-1, FLO1, 24 h constant exposure), 7.5 ± 0.8 µM; in assay [2] (Homo sapiens, FLO-1, FLO1, 72 h constant exposure), 1.9 ± 1.1 µM; in assay [3] (Homo sapiens, OE33, 24 h constant exposure), 6.6 ± 2 µM; in assay [3] (Homo sapiens, OE33, 72 h constant exposure) it was 5.7 ± 0.9 µM. Moreover, the half-maximal inhibitory concentration (IC50) in assay [6] (Homo sapiens, Epithelial cell, 24 h constant exposure) is above 10 µM; in [6] (Homo sapiens, Epithelial cell, 72 h constant exposure) it was above 10 µM. Further, the cell-cycle response result in the assay on OE21 cells [4] was “cells accumulated in G1 or early S phase”. Besides, the “increase in completely stalled/terminated replication forks (CldU tract only) compared to mock-treated” value in the assay with OE21 cells [5] (Ru1 21 μM or dppz 7 μM during second (IdU) pulse, 30 min) is “three-fold”. The “greater levels of stalled forks than Ru1” value in the assay on OE21 cells [5] (dppz 7 μM vs Ru1 21 μM) was “two-fold”.
For `N.N.[Cl][Pt][Cl]` [Cisplatin, cisplatin], the S.F. in the assay with OE33 cells (OE33, IR 0 Gy) worked out at 0.993; in the assay with OE33 cells (OE33, IR 2 Gy), 0.280; in the assay on OE33 cells (OE33, IR 4 Gy), 0.077; in the assay on OE33 cells (OE33, IR 6 Gy) it was 0.022; in the assay with OE33 cells (OE33, IR 8 Gy) it was 0.005; in the assay on FLO-1 cells (FLO-1, IR 0 Gy) it was 0.929. The S.F. in the assay on FLO-1 cells (FLO-1, IR 2 Gy) is reported as 0.340; in the assay with FLO-1 cells (FLO-1, IR 4 Gy), 0.080; in the assay with FLO-1 cells (FLO-1, IR 6 Gy) it was 0.007; in the assay with OE21 cells [7] (OE21, IR 0 Gy), 1.000; in the assay on OE21 cells [7] (OE21, IR 2 Gy) it was 0.587; with OE21 cells [7] (OE21, IR 4 Gy) it was 0.320. Further, the S.F. was found to be 0.159 in the assay on OE21 cells [7] (OE21, IR 6 Gy) and 0.049 in the assay with OE21 cells [7] (OE21, IR 8 Gy). The IC50 in [1] (OE21, 24 h constant exposure) amounted to 22.6 ± 3.6 µM; in [1] (OE21, 72 h constant exposure), 6.3 ± 0.6 µM; in assay [2] (FLO1, 24 h constant exposure), 26.5 ± 0.7 µM; in [2] (FLO1, 72 h constant exposure), 4.7 ± 0.7 µM; in assay [3] (OE33, 24 h constant exposure) it was 11 ± 1.4 µM; in assay [3] (OE33, 72 h constant exposure), 3.25 ± 1 µM. Besides, the values for the IC50 in assay [6] (24 h constant exposure) and in [6] (72 h constant exposure) were 21.5 ± 5 µM and 15.8 ± 2 µM, respectively. Also, the “dose modification factor (DMF) at surviving fraction of 0.1” value in assay [8] is recorded as 1.05–1.44.
